Results on 31 compounds are retold here after patent publication US5344843A, “Cat-1 inhibitors, pharmaceutical compositions and methods of use” (Hoffman-La Roche Inc., priority 1992, dated 1994).

Molecules are shown by their SMILES. Counter-ions that a name gives are not always drawn.

One assay deals with T1, CAT-1 (carnitine acyltransferase 1) (Rattus norvegicus, UniProt Q63704).
T1 construct: This preparation is used as the isolated mitochondrial preparation; from tissue; host or cells: rat heart (atria removed), isolated mitochondria
T1 sequence (Q63704 1-772): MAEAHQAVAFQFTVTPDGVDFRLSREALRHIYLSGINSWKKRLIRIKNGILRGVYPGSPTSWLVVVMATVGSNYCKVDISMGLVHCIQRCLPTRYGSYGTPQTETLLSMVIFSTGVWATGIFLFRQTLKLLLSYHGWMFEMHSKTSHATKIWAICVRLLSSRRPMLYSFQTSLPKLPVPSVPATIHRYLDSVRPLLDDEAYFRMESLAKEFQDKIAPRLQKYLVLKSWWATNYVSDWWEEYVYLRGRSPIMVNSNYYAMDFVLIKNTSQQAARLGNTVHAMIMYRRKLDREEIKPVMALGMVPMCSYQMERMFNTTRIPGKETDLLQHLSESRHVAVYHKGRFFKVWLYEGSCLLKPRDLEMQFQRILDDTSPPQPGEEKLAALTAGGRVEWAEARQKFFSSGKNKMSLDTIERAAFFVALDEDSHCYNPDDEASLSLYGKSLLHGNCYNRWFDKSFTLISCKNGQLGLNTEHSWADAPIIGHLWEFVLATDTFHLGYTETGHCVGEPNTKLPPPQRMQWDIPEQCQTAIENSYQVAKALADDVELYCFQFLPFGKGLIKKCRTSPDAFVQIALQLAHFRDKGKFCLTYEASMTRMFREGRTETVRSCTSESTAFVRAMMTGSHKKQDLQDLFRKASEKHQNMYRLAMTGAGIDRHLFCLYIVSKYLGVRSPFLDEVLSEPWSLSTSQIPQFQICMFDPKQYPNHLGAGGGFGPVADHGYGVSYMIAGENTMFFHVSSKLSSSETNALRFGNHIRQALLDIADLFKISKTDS
The experiment in a line: Primary Screen--Inhibition of CAT-1 in isolated mitochondria. The format is biochemical. The arrangement: inhibition: dose or concentration left out as unconfirmed.
Conditions: not given
As a reminder, the inhibition is the change of the read-out against control, counted positive when it falls. `O=C(O)C(=O)c1cc(Cl)c(OCCOc2ccc3ccccc3c2)c(Cl)c1` [Example 189, 3,5-dichloro-4-[2-(2-naphthalenyloxy)ethoxy]-alpha-oxobenzeneacetic acid (6:1) molar benzene solvate] had an inhibition of 28%.

The term IC50 denotes the concentration at which inhibition is half-maximal. With `O=C(O)C(=O)c1ccc(OCC(=O)N2CCN(CCc3ccccc3C(F)(F)F)CC2)cc1` [Example 253, alpha-oxo-4-[2-oxo-2-[4-[2-[2-(trifluoromethyl)phenyl]ethyl]-1-piperazinyl]ethoxy]benzeneacetic acid (1:1) hydrochloride], half-maximal inhibition (IC50) required 500 nM.

The compound `COc1cc(OCCOc2ccc3ccccc3c2)cc(OC)c1C(=O)C(=O)O` [Example 195, 2,6-dimethoxy-4-[2-(2-naphthalenyloxy)ethoxy]-alpha-oxobenzeneacetic acid] yielded an inhibition of 24%.

`Cc1nnc2n1-c1sc(C#CCOc3ccc(C(=O)C(=O)O)cc3)cc1C(c1ccccc1Cl)=NC2` [Example 294, 4-[3-[4-(2-chlorophenyl)-9-methyl-6H-thieno[3,2-f][1,2,4]triazolo[4,3-a][1,4]diazepin-2-yl]-2-propynyloxy]-alpha-oxobenzeneacetic acid] came in with a half-inhibitory concentration (IC50) of 300 nM.

Compound `O=C(O)C(=O)c1cc(F)c(OCCOc2ccc3ccccc3c2)c(F)c1` [Example 203, 3,5-difluoro-4-[2-(2-naphthalenyloxy)ethoxy]-alpha-oxobenzeneacetic acid] registered an inhibition of 37%.

The assay is the same for the next values; noted with them: rat heart mitochondria, reduction of palmitoyl carnitine formation by 50%; read-out: Primary Screen IC50.
As to `Cc1cc(C)c(C(=O)COc2ccc(C(=O)C(=O)O)cc2)c(C)c1` [Example 292, 4-[2-oxo-2-(2,4,6-trimethylphenyl]ethoxy]-alpha-oxobenzeneacetic acid], the IC50 came to 4500 nM.

For the compound `O=C(O)C(=O)c1ccc(SCCOc2ccc3ccccc3c2)cc1` [Example 149, 4-[[2-(2-naphthalenyloxy)ethyl]thio]-alpha-oxobenzeneacetic acid], the IC50 came out at 80 nM.

In the case of `O=C(COc1ccc2ccccc2c1)Nc1ccc(C(=O)C(=O)O)cc1` [Example 153, 4-[[2-(2-naphthalenyloxy)acetyl]amino]-alpha-oxobenzeneacetic acid], the IC50 amounted to 930 nM.

For `O=C(O)C(=O)c1ccc(OCc2cc3ccccc3o2)cc1` [Example 141, 4-[[2-benzofuranyl)methoxy]-alpha-oxobenzeneacetic acid], the IC50 was determined as 700 nM.

Take `O=C(O)C(=O)c1ccc(OCCCNC(=O)c2ccc3ccccc3c2)cc1` [Example 140, 4-[[3-(2-naphthoylamino)propyl]oxy]-alpha-oxobenzeneacetic acid]: the half-inhibitory concentration (IC50) was 150 nM.

For `CC(=O)c1ccc(OCCCOc2ccc(C(=O)C(=O)O)cc2)cc1O` [Example 273, 4-[3-(4-acetyl-3-hydroxyphenoxy)propoxy]-alpha-oxobenzeneacetic acid], the concentration for half-maximal inhibition (IC50) came out at 730 nM.

`O=C(O)C(=O)c1ccc(OCCOc2cc3ccccc3cc2O)cc1` [Example 121, 4-[[2-(3-hydroxy-2-naphthalenyloxy)ethyl]oxy]-alpha-oxobenzeneacetic acid]: the IC50 is 300 nM.

Regarding `O=C(O)C(=O)c1ccc(OCCOCCOc2ccccc2)cc1` [Example 77, 4-[[2-[[2-(phenoxy)ethyl]oxy]ethyl]oxy]-alpha-oxobenzeneacetic acid], the IC50 was found to be 2000 nM.

Regarding `Cc1ccc(OCCOc2ccc(C(=O)C(=O)O)cc2)cc1` [Example 49, 4-[[2-(4-methylphenoxy)ethyl]oxy]-alpha-oxobenzeneacetic acid], the half-inhibitory concentration (IC50) was 4000 nM.

As to `O=C(O)C(=O)c1ccc(OCCCOc2ccccc2)cc1` [Example 69, alpha-oxo-4-[[(3-phenoxy)propyl]oxy]benzeneacetic acid], the IC50 came to 2000 nM.

Consider `O=C(O)C(=O)c1ccc(OCCOc2ccc3c(c2)CCCC3)cc1` [Example 112, alpha-oxo-4-[[2-(5,6,7,8-tetrahydro-2-naphthalenyloxy)ethyl]oxy]benzeneacetic acid], for which the IC50 was found to be 200 nM.

As to `O=C(O)C(=O)c1ccc(OCC(=O)N2CCc3ccccc3C2)cc1` [Example 251, 4-[2-oxo-2-(1,2,3,4-tetrahydro-2-isoquinolinyl)ethoxy]-alpha-oxobenzeneacetic acid], the 50% inhibitory concentration (IC50) was determined as 400 nM.

With `COc1ccc(OCCOc2ccc(C(=O)C(=O)O)cc2)cc1OC` [Example 63, 4-[[2-(3,4-dimethoxyphenoxy)ethyl]oxy]-alpha-oxobenzeneacetic acid], the IC50 was determined as 3000 nM.

Consider `O=C(O)C(=O)c1ccc(OCC(=O)N2CCN(c3ccccc3)CC2)cc1` [Example 249, 4-[2-oxo-2-(4-phenyl-1-piperazinyl)ethoxy]-alpha-oxobenzeneacetic acid], for which the IC50 came to 10000 nM.

Consider `O=C(O)C(=O)c1ccc(OC/C=C\c2ccccc2)cc1` [Example 33, (Z)-alpha-oxo-4-[(3-phenyl-2-propenyl)oxy]benzeneacetic acid], for which the IC50 was 1000 nM.

`O=C(O)C(=O)c1ccc(OCCOc2ccc(Cl)cc2)cc1` [Example 45, 4-[[2-(4-chlorophenoxy)ethyl]oxy]-alpha-oxobenzeneacetic acid]: the half-maximal inhibitory concentration (IC50) turned out to be 300 nM.

As to `O=C(O)C(=O)c1ccc(OCOc2ccccc2)cc1` [Example 67, alpha-oxo-4-[[(phenoxy)methyl]oxy]benzeneacetic acid], the IC50 came out at 15000 nM.

As for `O=C(O)C(=O)c1ccc(OCCOc2ccc3cc4ccccc4cc3c2)cc1` [Example 108, 4-[[2-(2-anthracenyloxy)ethyl]oxy]-alpha-oxobenzeneacetic acid], the IC50 was 200 nM.

Regarding `O=C(O)C(=O)c1ccc(OCC(=O)C2CCCCCCC2)cc1` [Example 290, 4-[2-(cyclooctyl)-2-oxoethoxy]-alpha-oxobenzeneacetic acid], the half-inhibitory concentration (IC50) worked out at 1000 nM.

In the case of `CCCc1c(OCCCOc2ccc(C(=O)C(=O)O)cc2)ccc(C(=O)O)c1O` [Example 269, 4-[3-[4-carboxy-3-hydroxy-2-propylphenoxy)propoxy]-alpha-oxobenzeneacetic acid], the half-inhibitory concentration (IC50) came to 1800 nM.

On to `COC(=O)C(=O)c1ccc(OCCOc2ccc3cc(OC(C)=O)ccc3c2)cc1` [Example 138, 4-[[2-[6-(Acetyloxy)-2-naphthalenyloxy]ethyl]oxy]-alpha-oxobenzeneacetic acid methyl ester], for which the IC50 was found to be 8900 nM.

With `O=C(O)C(=O)c1ccc(OCCCn2c(=O)ccc3ccccc32)cc1` [Example 264, 4-[3-(1,2-dihydro-2-oxo-1-quinolinyl)propoxy]-alpha-oxobenzeneacetic acid], the IC50 turned out to be 12000 nM.

For `C=CCO/N=C(\C(=O)O)c1ccc(OCCOc2ccc3ccccc3c2)s1` [Example 313, (E)-5-[2-(2-naphthalenyloxy)ethoxy]-alpha-[(2-propenyloxy)imino]-2-thiopheneacetic acid], the IC50 is 270 nM.

For the compound `O=C(O)C(=O)c1ccc(OCCOc2ccc3cccnc3c2)cc1` [Example 127, alpha-oxo-4-[[2-(7-quinolyloxy)ethyl]oxy]benzeneacetic acid monohydrate], the half-inhibitory concentration (IC50) came to 260 nM.

`O=C(O)C(=O)c1ccc(OCC#Cc2ccccc2)cc1` [Example 35, alpha-oxo-4-[(3-phenyl-2-propynyl)oxy]benzeneacetic acid]: the concentration for half-maximal inhibition (IC50) was 400 nM.

On to `COc1ccc(OCCOc2ccc(C(=O)C(=O)O)cc2)cc1` [Example 61, 4-[[2-(4-methoxyphenoxy)ethyl]oxy]-alpha-oxobenzeneacetic acid], for which the IC50 stood at 2000 nM.
